Data taken from the supplement of paper PMC11451515.

What was measured:
Conditions in all cases: 48 h
SEM cells [1] = assay: cell viability relative to DMSO control; higher = less cytotoxic
In short: (§1)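 In 1536-well plates, 5 μl of leukemia cells were seeded per well: 500 cells/well for NOMO1 or SEM and 1000 cells/well for P12-Ichikawa. Each line had first been adapted for at least four passages in each medium. Library compounds in DMSO were pin-dosed at 11 threefold concentrations between 47 μM and 0.79 nM, and CellTiter-Glo One luminescence was read after 48 h at 37°C. Viability is a per-plate percentage relative to DMSO wells, with cell-free wells as background.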

P12-Ichikawa [2] = assay: as above
In short: as §1

NOMO1 [3] = assay: as above
In short: as §1

SEM cells [4] = assay: AUC of viability dose-response curve (% viability x log10 dose units); higher = less sensitive
In short: (§2)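 Over 48 h at 37°C, leukemia cells in 1536-well plates (500 or 1000 cells/well), adapted to each medium, received library compounds in DMSO at 11 threefold doses from 47 μM to 0.79 nM. CellTiter-Glo One luminescence, normalised per plate to DMSO and cell-free wells, was fitted by a four-parameter log-logistic function of log10 dose. The area under the curve was then integrated by trapezoidal rule, after scaling curves above full viability and removing those that failed quality control.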

P12-Ichikawa [5] = assay: as above
In short: as §2

NOMO1 [6] = assay: as above
In short: as §2

COC(=O)N[C@H](C(=O)N[C@@H](Cc1ccccc1)[C@@H](O)CN(Cc1ccc(-c2ccccn2)cc1)NC(=O)[C@@H](NC(=O)OC)C(C)(C)C)C(C)(C)C
cell viability [%]
Conditions | NOMO1 [3] | P12-Ichikawa [2] | SEM cells [1]
HPLM + 10% dialyzed FBS, 0.000781 µM | – | 118 | –
HPLM + 10% dialyzed FBS, 0.00234 µM | – | 107 | –
HPLM + 10% dialyzed FBS, 0.00702 µM | – | 102 | –
HPLM + 10% dialyzed FBS, 0.0211 µM | – | 107 | –
HPLM + 10% dialyzed FBS, 0.0632 µM | – | 124 | –
HPLM + 10% dialyzed FBS, 0.19 µM | – | 118 | –
HPLM + 10% dialyzed FBS, 0.569 µM | – | 102 | –
HPLM + 10% dialyzed FBS, 1.71 µM | – | 105 | –
HPLM + 10% dialyzed FBS, 5.12 µM | – | 107 | –
HPLM + 10% dialyzed FBS, 15.4 µM | – | 101 | –
HPLM + 10% dialyzed FBS, 46.1 µM | – | 25.4 | –
RPMI 5 mM glucose + 10% FBS, 0.000781 µM | 101 | 102 | 103
RPMI 5 mM glucose + 10% FBS, 0.00234 µM | 105 | 117 | 123
RPMI 5 mM glucose + 10% FBS, 0.00702 µM | 113 | 116 | 152
RPMI 5 mM glucose + 10% FBS, 0.0211 µM | 100 | 107 | 111
RPMI 5 mM glucose + 10% FBS, 0.0632 µM | 106 | 112 | 136
RPMI 5 mM glucose + 10% FBS, 0.19 µM | 103 | 117 | 110
RPMI 5 mM glucose + 10% FBS, 0.569 µM | 114 | 114 | 122
RPMI 5 mM glucose + 10% FBS, 1.71 µM | 110 | 116 | 110
RPMI 5 mM glucose + 10% FBS, 5.12 µM | 111 | 122 | 128
RPMI 5 mM glucose + 10% FBS, 15.4 µM | 97.8 | 113 | 116
RPMI 5 mM glucose + 10% FBS, 46.1 µM | 93.4 | 108 | 96.7
RPMI 5 mM glucose + 10% dialyzed FBS, 0.000781 µM | 112 | 98.9 | 101
RPMI 5 mM glucose + 10% dialyzed FBS, 0.00234 µM | 102 | 111 | 118
RPMI 5 mM glucose + 10% dialyzed FBS, 0.00702 µM | 114 | 112 | 136
RPMI 5 mM glucose + 10% dialyzed FBS, 0.0211 µM | 116 | 113 | 123
RPMI 5 mM glucose + 10% dialyzed FBS, 0.0632 µM | 113 | 113 | 132
RPMI 5 mM glucose + 10% dialyzed FBS, 0.19 µM | 103 | 107 | 131
RPMI 5 mM glucose + 10% dialyzed FBS, 0.569 µM | 97.3 | 103 | 110
RPMI 5 mM glucose + 10% dialyzed FBS, 1.71 µM | 101 | 99.2 | 113
RPMI 5 mM glucose + 10% dialyzed FBS, 5.12 µM | 110 | 94.7 | 122
RPMI 5 mM glucose + 10% dialyzed FBS, 15.4 µM | 101 | 98.2 | 123
RPMI 5 mM glucose + 10% dialyzed FBS, 46.1 µM | 94.9 | 86.4 | 79.9

AUC of viability dose-response curve
Conditions | NOMO1 [6] | P12-Ichikawa [5] | SEM cells [4]
HPLM + 10% dialyzed FBS | 388 | 455 | 464
RPMI 5 mM glucose + 10% FBS | 470 | 467 | 457
RPMI 5 mM glucose + 10% dialyzed FBS | 453 | 451 | 469
